{
  "source": "patent US11730712B2",
  "about": "“Functionalized long-chain hydrocarbon mono- and di-carboxylic acids and derivatives thereof, and their use for the prevention or treatment of disease” (ESPERVITA THERAPEUTICS, INC., priority 2021, dated 2023)",
  "test_system": "liver fibrosis gene panel (770 genes)",
  "assay": "Nanostring nCounter Fibrosis panel gene expression in liver of DEN-injected mice",
  "type": "in vivo, mouse",
  "settings": "vs vehicle",
  "procedure": "Nanostring Analysis. RNA was extracted from paired liver and tumor tissue from vehicle, Compound I-1 (100 mg/kg) and Compound I-32 (100 mg/kg) treated mice using an RNeasy kit (Qiagen, Calif., USA) as per manufacturer's protocol. All RNA samples passed the BioAnalyzer quality control test. The expression of target genes in liver and tumor were analyzed using the nCounter Fibrosis and Cancer Panel (NanoString Technologies, Inc., WA, USA), respectively according to manufacturer's protocol at the McMaster Genomics Facility. Technical and biological normalization against global geometric mean was performed in nSolver 4.0 software (NanoString Technologies). Technical normalization was performed in the nSolver software (version 4.0.70) by normalizing sample target raw counts to the geometric mean of positive control spike-ins. Biological normalization was performed by normalizing sample target raw counts to the geometric mean of selected housekeeping genes (Ppia, Nubp1, Nol7, Armh3, Rplp0, Cnot10, Pgk1, and Acad9). Pathway scores were calculated as the first principal component of the normalized expression values for all genes in each pathway and samples were compiled according to experimental groups to determine average pathway scores. Statistical significance was calculated between experimental groups using multiple t-tests and p-values were corrected for multiple comparisons using Benjamin-Hochberg false discovery rate.\nMolecular analysis. To identify the pathways modulated in the liver and tumor tissue, nanostring analysis of fibrosis and cancer, pathways, respectively were completed in an n=8 mice treated with vehicle or Compound I-32 or Compound I-1 at 100 mg/kg.",
  "data": [
    {"smiles": "CC(C)(CCCCc1ccc(CCCCC(C)(C)C(=O)O)cc1)C(=O)O", "note": "[Compound I-1, 6-[4-(5-carboxy-5-methylhexyl)-phenyl]-2,2-dimethylhexanoic acid]", "values": [
      {"measurement": "Axl Log2FC", "setting": "NM_009465, 100 mg/kg", "result": "−0.493"},
      {"measurement": "Apoal Log2FC", "setting": "NM_009692, 100 mg/kg", "result": "−1.03"},
      {"measurement": "Apob Log2FC", "setting": "NM_009693, 100 mg/kg", "result": "−0.289"},
      {"measurement": "Atox1 Log2FC", "setting": "NM_009720, 100 mg/kg", "result": 0.157},
      {"measurement": "Bcl2l1 Log2FC", "setting": "NM_009743, 100 mg/kg", "result": "−0.344"},
      {"measurement": "Serping1 Log2FC", "setting": "NM_009776, 100 mg/kg", "result": "−0.631"},
      {"measurement": "C3ar1 Log2FC", "setting": "NM_009779, 100 mg/kg", "result": "−0.618"},
      {"measurement": "Calm1 Log2FC", "setting": "NM_009790, 100 mg/kg", "result": "−0.334"},
      {"measurement": "Casp12 Log2FC", "setting": "NM_009808, 100 mg/kg", "result": "−0.633"},
      {"measurement": "Casp3 Log2FC", "setting": "NM_009810, 100 mg/kg", "result": "−0.346"},
      {"measurement": "Casp6 Log2FC", "setting": "NM_009811, 100 mg/kg", "result": 0.266},
      {"measurement": "Casp8 Log2FC", "setting": "NM_009812, 100 mg/kg", "result": 0.195},
      {"measurement": "Serpinh1 Log2FC", "setting": "NM_009825, 100 mg/kg", "result": "−0.486"},
      {"measurement": "Cdk4 Log2FC", "setting": "NM_009870, 100 mg/kg", "result": 0.26},
      {"measurement": "Cfh Log2FC", "setting": "NM_009888, 100 mg/kg", "result": "−1.41"},
      {"measurement": "Cxcr4 Log2FC", "setting": "NM_009911, 100 mg/kg", "result": "−0.931"},
      {"measurement": "Ccr2 Log2FC", "setting": "NM_009915, 100 mg/kg", "result": "−1.18"},
      {"measurement": "Col3a1 Log2FC", "setting": "NM_009930, 100 mg/kg", "result": "−0.764"},
      {"measurement": "Csnk2b Log2FC", "setting": "NM_009975, 100 mg/kg", "result": 0.114},
      {"measurement": "Ctsd Log2FC", "setting": "NM_009983, 100 mg/kg", "result": 0.297},
      {"measurement": "Cyp4a10/31/32 Log2FC", "setting": "NM_010011, 100 mg/kg", "result": 3.15},
      {"measurement": "Fcer1g Log2FC", "setting": "NM_010185, 100 mg/kg", "result": "−0.406"},
      {"measurement": "Fga Log2FC", "setting": "NM_010196, 100 mg/kg", "result": "−0.563"},
      {"measurement": "Fn1 Log2FC", "setting": "NM_010233, 100 mg/kg", "result": "−0.666"},
      {"measurement": "Got2 Log2FC", "setting": "NM_010325, 100 mg/kg", "result": 0.224},
      {"measurement": "H2-Aa Log2FC", "setting": "NM_010378, 100 mg/kg", "result": "−0.78"},
      {"measurement": "H2-D1 Log2FC", "setting": "NM_010380, 100 mg/kg", "result": "−0.266"},
      {"measurement": "H2-Eb1 Log2FC", "setting": "NM_010382, 100 mg/kg", "result": "−0.772"},
      {"measurement": "H2-Dma Log2FC", "setting": "NM_010386, 100 mg/kg", "result": "−0.391"},
      {"measurement": "H2-DMB1 Log2FC", "setting": "NM_010387, 100 mg/kg", "result": "−0.938"},
      {"measurement": "H2-T23 Log2FC", "setting": "NM_010398, 100 mg/kg", "result": "−0.403"},
      {"measurement": "Hc Log2FC", "setting": "NM_010406, 100 mg/kg", "result": "−0.325"},
      {"measurement": "Hif1a Log2FC", "setting": "NM_010431, 100 mg/kg", "result": 0.358},
      {"measurement": "Hsp90aa1 Log2FC", "setting": "NM_010480, 100 mg/kg", "result": 0.693},
      {"measurement": "Icam1 Log2FC", "setting": "NM_010493, 100 mg/kg", "result": "−0.371"},
      {"measurement": "Ikbkb Log2FC", "setting": "NM_010546, 100 mg/kg", "result": "−0.395"},
      {"measurement": "Ilk Log2FC", "setting": "NM_010562, 100 mg/kg", "result": "−0.143"},
      {"measurement": "Itgb1 Log2FC", "setting": "NM_010578, 100 mg/kg", "result": 0.106},
      {"measurement": "Fabp5 Log2FC", "setting": "NM_010634, 100 mg/kg", "result": 1.1},
      {"measurement": "Psmb8 Log2FC", "setting": "NM_010724, 100 mg/kg", "result": "−1.07"},
      {"measurement": "Loxl1 Log2FC", "setting": "NM_010729, 100 mg/kg", "result": "−1.1"},
      {"measurement": "Lyn Log2FC", "setting": "NM_010747, 100 mg/kg", "result": "−0.32"},
      {"measurement": "Smad2 Log2FC", "setting": "NM_010754, 100 mg/kg", "result": 0.246},
      {"measurement": "Myd88 Log2FC", "setting": "NM_010851, 100 mg/kg", "result": 0.261},
      {"measurement": "Nid1 Log2FC", "setting": "NM_010917, 100 mg/kg", "result": "−0.733"},
      {"measurement": "P4hb Log2FC", "setting": "NM_011032, 100 mg/kg", "result": "−0.842"},
      {"measurement": "Pek1 Log2FC", "setting": "NM_011044, 100 mg/kg", "result": "−1.88"},
      {"measurement": "Prkacb Log2FC", "setting": "NM_011100, 100 mg/kg", "result": "−0.158"},
      {"measurement": "Pltp Log2FC", "setting": "NM_011125, 100 mg/kg", "result": 1.39},
      {"measurement": "Ppard Log2FC", "setting": "NM_011145, 100 mg/kg", "result": "−0.466"},
      {"measurement": "Pparg Log2FC", "setting": "NM_011146, 100 mg/kg", "result": "−0.615"},
      {"measurement": "Prkdc Log2FC", "setting": "NM_011159, 100 mg/kg", "result": "−0.568"},
      {"measurement": "Pros1 Log2FC", "setting": "NM_011173, 100 mg/kg", "result": "−0.22"},
      {"measurement": "Lgmn Log2FC", "setting": "NM_011175, 100 mg/kg", "result": "−0.499"},
      {"measurement": "Psmb7 Log2FC", "setting": "NM_011187, 100 mg/kg", "result": 0.204},
      {"measurement": "Ptprc Log2FC", "setting": "NM_011210, 100 mg/kg", "result": "−0.49"},
      {"measurement": "Rein Log2FC", "setting": "NM_011261, 100 mg/kg", "result": "−0.45"},
      {"measurement": "S100a4 Log2FC", "setting": "NM_011311, 100 mg/kg", "result": "−1.28"},
      {"measurement": "Serpinf1 Log2FC", "setting": "NM_011340, 100 mg/kg", "result": "−0.18"},
      {"measurement": "Sod1 Log2FC", "setting": "NM_011434, 100 mg/kg", "result": 0.352},
      {"measurement": "Srebf1 Log2FC", "setting": "NM_011480, 100 mg/kg", "result": "−0.608"},
      {"measurement": "Skp1a Log2FC", "setting": "NM_011543, 100 mg/kg", "result": 0.227},
      {"measurement": "Thbs2 Log2FC", "setting": "NM_011581, 100 mg/kg", "result": "−0.831"},
      {"measurement": "Timp2 Log2FC", "setting": "NM_011594, 100 mg/kg", "result": "−0.609"},
      {"measurement": "Tjp2 Log2FC", "setting": "NM_011597, 100 mg/kg", "result": 0.204}
    ]}
  ]
}
